Results taken from patent publication US4252812A, “2-Substituted-trans-5-ar yl-2,3,4,4a,5,9b-hexahydro-1H-pyrido[4,3-b]indoles” (Pfizer Inc., priority 1980, dated 1981).
Structures can show the parent of a compound that is named as a salt. Where two headings read alike, the source gives them in different places.

Experiments:
[1] = tested on: amphetamine-induced symptoms (cage movement) in rats; test: Antagonism of amphetamine stereotypy in rats; assay type: in vivo, rat; conditions: for ED50: Rattus norvegicus; for ED50 (micrograms/kilograms) 1 Hr. / ED50 (mg./kg.) 1 Hr.: 60 min; for ED50 (micrograms/kilograms) 5 Hrs. / ED50 (mg./kg.) 5 Hrs.: 300 min; for ED50 (micrograms/kilograms) 24 Hrs. / ED50 (mg./kg.) 24 Hrs.: 1440 min; for ED50 (mg./kg.) 1 Hr. / ED50 (mg./kg.) 5 Hrs. / ED50 (mg./kg.) 24 Hrs. / ED50 (mg./kg.) 72 Hrs. / ED50 (mg./kg.) 48 Hrs.: Part D, enantiomers from Example 21; for ED50 (mg./kg.) 72 Hrs.: 4320 min; for ED50 (mg./kg.) 48 Hrs.: 2880 min
Procedure: Antagonism of Amphetamine Stereotypy in Rats Test Procedures and Results
The effects of the compounds of the present invention on prominent amphetamine-induced symptoms were studied in rats by a rating scale modeled after the one reported by Quinton and Halliwell, and Weissman. Groups of five rats were placed in a covered plastic cage measuring approximately 26 cm.×42 cm.×16 cm. […] They were then treated 1, 5 and 24 hrs. later with d-amphetamine sulfate, 5 mg./kg. intraperitoneally (i.p.). […] On the basis of dose-response data after amphetamine it was possible to determine the effective dose of the compound necessary to antagonize or block the characteristic amphetamine behavior of cage movement for fifty percent of the rats tested (ED50). The time of rating chosen coincides with the peak action of amphetamine which is 60-80 min. after treatment with this agent.
Employing the above-described procedure, the following 4a,9b-trans compounds were tested for their ability to block the behavior effects of amphetamine, the results being reported as the ED50 in mg./kg. at the indicated times: [drawing 31]
A. The following results were obtained on the mixture of diastereomers for those compounds wherein R contains a secondary alcohol group and on the single diastereomer of the other 4a, 9b-trans hexahydro-pyrido-indoles.
B. The results of tests in which compounds of the invention reported in Part A, above are compared with the corresponding δ-substituted-5-aryl-1,2,3,4-tetrahydropyrido[4,3-b]indoles of U.S. Pat. No. 4,001,263 are summarized below. For each pair the results obtained on the prior art compound (a) are given first and the results for the compound of the invention (b) are given second. Where indicated the test compound was also administered orally (p.o.) and tests were carried out for 48 hours.
C. Test results expressed as micrograms/kilograms, obtained on the diastereomers αβ and γδ separated in Example 13 and each of the enantiomers α, β, γ and δ resolved by the procedure of Example 14 are shown below. In each case the compounds are of the formula
The tests were carried out for 72 hours.

dopamine receptors = dopamine receptors (Rattus norvegicus, UniProt P61169); test: Inhibition of 3H-spiroperidol binding to dopamine receptors; design: species or system rat (Sprague-Dawley CD males); conditions: rat corpus striatum; 0.5 nM 3H-spiroperidol; 10 min at 37° C.; hydrochloride salts
Chain of dopamine receptors (P61169 whole entry): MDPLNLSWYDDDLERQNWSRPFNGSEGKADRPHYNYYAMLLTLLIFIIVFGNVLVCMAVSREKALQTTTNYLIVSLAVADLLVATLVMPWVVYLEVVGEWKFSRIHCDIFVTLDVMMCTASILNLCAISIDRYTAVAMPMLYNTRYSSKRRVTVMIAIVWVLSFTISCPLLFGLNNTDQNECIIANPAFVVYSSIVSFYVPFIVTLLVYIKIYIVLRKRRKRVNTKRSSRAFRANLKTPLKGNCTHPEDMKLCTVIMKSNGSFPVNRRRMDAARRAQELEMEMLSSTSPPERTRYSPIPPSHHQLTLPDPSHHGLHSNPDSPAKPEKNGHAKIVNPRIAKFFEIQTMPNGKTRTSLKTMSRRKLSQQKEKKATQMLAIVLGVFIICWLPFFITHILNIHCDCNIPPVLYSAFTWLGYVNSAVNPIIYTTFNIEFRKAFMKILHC

[2] = sc, 1 h, Part A, 1 hr, test compound s.c. (method), read-out: ED50 (mg./kg.) 1 Hr.
[3] = sc, 5 h, Part A, 5 hr, test compound s.c. (method), read-out: ED50 (mg./kg.) 5 Hr.
[4] = sc, 24 h, Part A, 24 hrs, test compound s.c. (method), read-out: ED50 (mg./kg.) 24 Hrs.
[5] = ip, 1 h, Part B, 1 hr, i.p., read-out: ED50 (mg./kg.) 1 Hr.
[6] = ip, 5 h, Part B, 5 hrs, i.p., read-out: ED50 (mg./kg.) 5 Hrs.
[7] = ip, 24 h, Part B, 24 hrs, i.p., read-out: ED50 (mg./kg.) 24 Hrs.
[8] = sc, 1 h, read-out: ED50 (mg./kg.) 1 Hr.
[9] = sc, 5 h, read-out: ED50 (mg./kg.) 5 Hr.

## COc1ccc(C(O)CCCN2CCC3C(C2)c2ccccc2N3c2ccccc2)cc1 (stereo not shown)
[1]; [2]
  ED50: 0.1 to 0.32 mg/kg
[1]; [3]
  ED50: 0.1 to 0.32 mg/kg
[1]; [4]
  ED50: ~1 mg/kg

## OC(CCCN1CC[C@@H]2[C@@H](C1)c1ccccc1N2c1ccccc1)c1ccccc1 (relative stereo)
[1]; [5]
  ED50: 0.032 to 0.1 mg/kg
[1]; [6]
  ED50: 0.032 to 0.1 mg/kg
[1]; [7]
  ED50: 0.1 to 0.32 mg/kg
[1]; [2]
  ED50: 0.032 to 0.1 mg/kg
[1]; [3]
  ED50: 0.032 to 0.1 mg/kg
[1]; [4]
  ED50: 0.1 to 0.32 mg/kg

## OC(CCCN1CC[C@@H]2[C@@H](C1)c1ccccc1N2c1ccccc1)c1ccc(F)cc1 (relative stereo)
[1]; [2]
  ED50: 0.1 to 0.32 mg/kg
[1]; [3]
  ED50: 0.1 to 0.32 mg/kg
[1]; [4]
  ED50: 0.1 to 0.32 mg/kg

## O=C(CCCN1CC[C@@H]2[C@@H](C1)c1ccccc1N2c1ccccc1)c1ccc(F)cc1 (relative stereo)
[1]; [3]
  ED50: 0.1 to 0.32 mg/kg

## OC(CCCN1CC[C@@H]2[C@@H](C1)c1cc(F)ccc1N2c1ccc(F)cc1)c1ccccc1 (relative stereo)
[1]; [2]
  ED50: 0.1 to 0.32 mg/kg
[1]; [3]
  ED50: 0.1 to 0.32 mg/kg
[1]; [4]
  ED50: < 0.32 mg/kg

## O=C(CCCN1CC[C@@H]2[C@@H](C1)c1cc(F)ccc1N2c1ccc(F)cc1)c1ccc(F)cc1 (relative stereo)
[1]; [5]
  ED50: < 1 mg/kg
[1]; [6]
  ED50: < 1 mg/kg
[1]; [7]
  ED50: < 1 mg/kg
[1]; [2]
  ED50: < 1 mg/kg
[1]; [3]
  ED50: < 1 mg/kg
[1]; [4]
  ED50: < 1 mg/kg

## c1ccc(CCCN2CC[C@@H]3[C@@H](C2)c2ccccc2N3c2ccccc2)cc1 (relative stereo) [X1=H, Y1=H, R=C6 H5 (CH2)3, reference compound]
[1]; [2]
  ED50: 3.2 to 10 mg/kg
[1]; [3]
  ED50: 3.2 to 10 mg/kg
[1]; [4]
  ED50: > 10 mg/kg

## c1ccc(CN2CC[C@@H]3[C@@H](C2)c2ccccc2N3c2ccccc2)cc1 (relative stereo) [X1=H, Y1=H, R=C6 H5 CH2, dl-trans-2-benzyl-2,3,4,4a,5,9b-hexahydro-5-phenyl-1H-pyrido-[4,3-b]indole Hydrochloride, reference compound]
[1]; [2]
  ED50: ~10 mg/kg
[1]; [3]
  ED50: 3.2 to 32 mg/kg
[1]; [4]
  ED50: > 3.2 mg/kg

## c1ccc(N2c3ccccc3[C@@H]3CNCC[C@H]32)cc1 (relative stereo) [X1=H, Y1=H, R=H, dl-trans-5-Phenyl-2,3,4,4a,5,9b-hexahydro-1H-pyrido[4,3-b]indole, reference compound]
[1]; [8]
  ED50: 3.2 to 32 mg/kg
[1]; [9]
  ED50: > 3.2 mg/kg
[1]; sc, 24 h, read-out: ED50 (mg./kg.) 24 Hrs.
  ED50: > 32 mg/kg

## OC(CCCN1CC[C@@H]2[C@@H](C1)c1cc(F)ccc1N2c1ccc(F)cc1)c1ccc(F)cc1 (relative stereo) [drawing 38]
[1]; [5]
  ED50: 0.032 to 0.1 mg/kg
[1]; [6]
  ED50: 0.032 to 0.1 mg/kg
[1]; [7]
  ED50: 0.032 to 0.1 mg/kg
[1]; ip, 48 h, Part B, 48 hrs, i.p., read-out: ED50 (mg./kg.) 48 Hrs.
  ED50: 0.1 to 0.32 mg/kg
[1]; po, 1 h, Part B, 1 hr, p.o., read-out: ED50 (mg./kg.) 1 Hr.
  ED50: 0.32 to 1 mg/kg
[1]; po, 5 h, Part B, 5 hrs, p.o., read-out: ED50 (mg./kg.) 5 Hrs.
  ED50: 0.1 to 0.32 mg/kg
[1]; po, 24 h, Part B, 24 hrs, p.o., read-out: ED50 (mg./kg.) 24 Hrs.
  ED50: 0.1 to 0.32 mg/kg
[1]; [2]
  ED50: 0.032 to 0.1 mg/kg

## OC(CCCN1CC[C@@H]2[C@@H](C1)c1cc(F)ccc1N2c1ccc(F)cc1)c1ccc(F)cc1 (relative stereo) [αβ, dl trans-8-fluoro-5-(p-fluorophenyl)-2-[4-hydroxy-4-(p-fluorophenyl)butyl]-2,3,4,4a,5,9b-hexahydro-1H-pyrido[4,3-b]indole]
Dopamine receptors
  IC50: 23 nM

## OC(CCCN1CC[C@@H]2[C@@H](C1)c1cc(F)ccc1N2c1ccc(F)cc1)c1ccc(F)cc1 (relative stereo) [αβγδ, dl-trans-8-Fluoro-5-(p-fluorophenyl)-2-[4-hydroxy-4-(p-fluorophenyl)butyl]-2,3,4,4a,5,9b-hexahydro-1H-pyrido[4,3-b]indole hydrochloride]
Dopamine receptors
  IC50: 21 nM
[1]; sc, 1 h, Part C, 1 hr, s.c. (method), read-out: ED50 (micrograms/kilograms) 1 Hr.
  ED50: 0.032 to 0.1 mg/kg
[1]; sc, 5 h, Part C, 5 hrs, s.c. (method), read-out: ED50 (micrograms/kilograms) 5 Hrs.
  ED50: 0.032 to 0.1 mg/kg
[1]; sc, 24 h, Part C, 24 hrs, s.c. (method), read-out: ED50 (micrograms/kilograms) 24 Hrs.
  ED50: 0.032 to 0.1 mg/kg

## OC(CCCN1CCC2C(C1)c1cc(F)ccc1N2c1ccc(F)cc1)c1ccc(F)cc1 (single isomer, unassigned) [α, 8-fluoro-5-(p-fluorophenyl)-2-[4-hydroxy-4-(p-fluorophenyl)butyl]-2,3,4,4a,5,9b-hexahydro-1H-pyrido[4,3-b]indole]
[1]; Part C, 1 hr, s.c. (method)
  ED50 (micrograms/kilograms) 1 Hr.: 120 micrograms/kilograms
[1]; Part C, 5 hrs, s.c. (method)
  ED50 (micrograms/kilograms) 5 Hrs.: 32-100 micrograms/kilograms
[1]; Part C, 24 hrs, s.c. (method)
  ED50 (micrograms/kilograms) 24 Hrs.: 32-100 micrograms/kilograms
[1]; 1 hr
  ED50 (mg./kg.) 1 Hr.: 0.023 mg/kg
[1]; 5 hrs
  ED50 (mg./kg.) 5 Hrs.: 0.014 mg/kg
[1]; 24 hrs
  ED50 (mg./kg.) 24 Hrs.: 0.033 mg/kg
[1]
  ED50 (mg./kg.) 72 Hrs.: > 10 mg/kg

## OC(CCCN1CCC2C(C1)c1cc(F)ccc1N2c1ccc(F)cc1)c1ccc(F)cc1 (single isomer, unassigned) [β, 8-fluoro-5-(p-fluorophenyl)-2-[4-hydroxy-4-(p-fluorophenyl)butyl]-2,3,4,4a,5,9b-hexahydro-1H-pyrido[4,3-b]indole hydrochloride]
Dopamine receptors
  IC50: 1800 nM

## OC(CCCN1CCC2C(C1)c1cc(F)ccc1N2c1ccc(F)cc1)c1ccc(F)cc1 (single isomer, unassigned) [γ, 8-fluoro-5-(p-fluorophenyl)-2-[4-hydroxy-4-(p-fluorophenyl)butyl]-2,3,4,4a,5,9b-hexahydro-1H-pyrido[4,3-b]indole]
[1]; Part C, 1 hr, s.c. (method)
  ED50 (micrograms/kilograms) 1 Hr.: 180 micrograms/kilograms
[1]; Part C, 5 hrs, s.c. (method)
  ED50 (micrograms/kilograms) 5 Hrs.: 32-100 micrograms/kilograms
[1]; Part C, 24 hrs, s.c. (method)
  ED50 (micrograms/kilograms) 24 Hrs.: 32-100 micrograms/kilograms
[1]; 1 hr
  ED50 (mg./kg.) 1 Hr.: 0.178 mg/kg
[1]; 5 hrs
  ED50 (mg./kg.) 5 Hrs.: 0.045 mg/kg
[1]; 24 hrs
  ED50 (mg./kg.) 24 Hrs.: 0.018 mg/kg
[1]; 48 hrs
  ED50 (mg./kg.) 48 Hrs.: ca. 1 mg./kg.
[1]
  ED50 (mg./kg.) 72 Hrs.: > 1 mg/kg

## OC(CCCN1CCC2C(C1)c1cc(F)ccc1N2c1ccc(F)cc1)c1ccc(F)cc1 (single isomer, unassigned) [δ, 8-fluoro-5-(p-fluorophenyl)-2-[4-hydroxy-4-(p-fluorophenyl)butyl]-2,3,4,4a,5,9b-hexahydro-1H-pyrido[4,3-b]indole]
[1]; Part C, 1 hr, s.c. (method)
  ED50 (micrograms/kilograms) 1 Hr.: > 1000 micrograms/kilograms
[1]; Part C, 5 hrs, s.c. (method)
  ED50 (micrograms/kilograms) 5 Hrs.: 560 micrograms/kilograms
[1]; Part C, 24 hrs, s.c. (method)
  ED50 (micrograms/kilograms) 24 Hrs.: 320-1000 micrograms/kilograms
[1]; 1 hr
  ED50 (mg./kg.) 1 Hr.: > 10 mg/kg
[1]; 5 hrs
  ED50 (mg./kg.) 5 Hrs.: 5.7 mg/kg
[1]; 24 hrs
  ED50 (mg./kg.) 24 Hrs.: > 10 mg/kg
[1]; 48 hrs
  ED50 (mg./kg.) 48 Hrs.: > 10 mg/kg
[1]
  ED50 (mg./kg.) 72 Hrs.: > 10 mg/kg

## CCN1CCC2C(C1)c1ccccc1N2c1ccccc1 (stereo not shown) [X1=H, Y1=H, R=C2 H5, reference compound]
[1]; [8]
  ED50: ~1 mg/kg
[1]; [9]
  ED50: > 3.2 mg/kg
